The structures appear in SMILES notation.

The assay deals with T1, voltage-dependent T-type calcium channel subunit alpha-1G (Cav3.2) (Homo sapiens, UniProt O95180).
T1 construct: expressed in transfected cells; host or cells: HEK293
Briefly: FLIPR calcium flux assay, HEK293 cells recombinantly expressing Cav3.2. In kind it is cell-based. Conditions: Cav3.2-channel, Fluo-4-AM, 3 min incubation, stimulation with 10 mM CaCl2. The essentials: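 Calcium influx was triggered by adding CaCl2 to 10 mM final, 3 min after compounds in tetraethylammonium-based buffer, pH 7.2, reached Fluo-4-AM-loaded recombinant HEK293 cells. The integrated kinetic fluorescence signal per concentration gave concentration-response curves by non-linear sigmoidal regression.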

T1 sequence (O95180 whole entry): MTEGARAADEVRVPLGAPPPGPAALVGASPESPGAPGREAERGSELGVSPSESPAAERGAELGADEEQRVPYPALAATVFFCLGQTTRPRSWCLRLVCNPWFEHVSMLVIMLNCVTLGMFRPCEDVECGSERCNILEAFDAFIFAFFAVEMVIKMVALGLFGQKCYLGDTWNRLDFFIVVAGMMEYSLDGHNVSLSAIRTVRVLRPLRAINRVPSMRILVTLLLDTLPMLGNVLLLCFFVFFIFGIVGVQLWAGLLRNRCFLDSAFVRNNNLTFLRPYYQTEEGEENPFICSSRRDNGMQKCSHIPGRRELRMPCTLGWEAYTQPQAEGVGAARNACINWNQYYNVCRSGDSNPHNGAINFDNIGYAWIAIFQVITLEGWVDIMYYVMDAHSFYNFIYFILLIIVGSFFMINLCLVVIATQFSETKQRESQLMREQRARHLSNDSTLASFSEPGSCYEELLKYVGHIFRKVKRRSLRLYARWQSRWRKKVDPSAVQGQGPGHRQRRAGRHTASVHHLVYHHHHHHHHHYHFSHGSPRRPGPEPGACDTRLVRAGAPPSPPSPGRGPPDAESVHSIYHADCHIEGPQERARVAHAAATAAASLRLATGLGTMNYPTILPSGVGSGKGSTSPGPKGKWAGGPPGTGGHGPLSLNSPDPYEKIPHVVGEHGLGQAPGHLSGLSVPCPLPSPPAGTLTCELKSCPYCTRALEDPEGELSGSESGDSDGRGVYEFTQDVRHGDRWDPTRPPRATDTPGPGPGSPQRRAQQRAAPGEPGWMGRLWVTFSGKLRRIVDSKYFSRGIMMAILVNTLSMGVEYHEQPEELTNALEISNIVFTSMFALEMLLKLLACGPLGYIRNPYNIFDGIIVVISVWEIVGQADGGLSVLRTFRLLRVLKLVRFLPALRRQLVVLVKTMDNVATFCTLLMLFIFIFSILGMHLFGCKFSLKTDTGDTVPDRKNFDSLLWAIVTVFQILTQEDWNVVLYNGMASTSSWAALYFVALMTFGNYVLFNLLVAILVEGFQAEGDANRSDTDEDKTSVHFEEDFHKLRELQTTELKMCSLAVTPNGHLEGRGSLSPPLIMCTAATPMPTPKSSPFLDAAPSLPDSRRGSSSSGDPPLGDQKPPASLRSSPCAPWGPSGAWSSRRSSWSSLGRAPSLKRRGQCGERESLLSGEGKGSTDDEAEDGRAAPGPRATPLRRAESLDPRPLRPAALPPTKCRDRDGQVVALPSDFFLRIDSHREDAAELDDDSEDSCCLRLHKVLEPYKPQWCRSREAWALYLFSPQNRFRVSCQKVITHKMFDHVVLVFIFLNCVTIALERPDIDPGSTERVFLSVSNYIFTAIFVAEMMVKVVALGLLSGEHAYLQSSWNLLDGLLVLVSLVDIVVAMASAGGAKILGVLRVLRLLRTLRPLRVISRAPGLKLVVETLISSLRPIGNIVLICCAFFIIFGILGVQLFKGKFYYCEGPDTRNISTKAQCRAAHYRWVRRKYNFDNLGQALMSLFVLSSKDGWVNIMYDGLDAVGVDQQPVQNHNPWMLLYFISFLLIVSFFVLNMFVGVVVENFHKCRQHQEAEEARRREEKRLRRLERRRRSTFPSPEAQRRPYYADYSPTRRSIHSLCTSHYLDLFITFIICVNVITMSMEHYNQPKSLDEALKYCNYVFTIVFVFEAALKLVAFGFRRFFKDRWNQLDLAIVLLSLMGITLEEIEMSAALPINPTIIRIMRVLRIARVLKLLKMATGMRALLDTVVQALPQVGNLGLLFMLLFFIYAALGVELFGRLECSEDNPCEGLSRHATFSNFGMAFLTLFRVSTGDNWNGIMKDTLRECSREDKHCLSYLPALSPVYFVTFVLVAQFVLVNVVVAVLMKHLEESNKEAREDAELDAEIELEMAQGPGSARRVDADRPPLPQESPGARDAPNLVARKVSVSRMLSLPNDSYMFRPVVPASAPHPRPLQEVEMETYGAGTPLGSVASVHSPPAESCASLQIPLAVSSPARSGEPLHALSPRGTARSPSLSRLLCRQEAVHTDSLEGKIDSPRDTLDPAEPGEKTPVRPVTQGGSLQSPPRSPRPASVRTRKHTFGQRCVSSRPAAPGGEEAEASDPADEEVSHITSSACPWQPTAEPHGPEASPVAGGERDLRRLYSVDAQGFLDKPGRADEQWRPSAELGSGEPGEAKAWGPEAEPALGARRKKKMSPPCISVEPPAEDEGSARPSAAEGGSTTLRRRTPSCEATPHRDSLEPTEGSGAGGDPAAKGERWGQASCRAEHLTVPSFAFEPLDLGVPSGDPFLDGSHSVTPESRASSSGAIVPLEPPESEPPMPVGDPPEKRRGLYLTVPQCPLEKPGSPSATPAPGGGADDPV

Regarding `N#Cc1cc(Cn2ccc(NC(=O)Cc3ccc(C4(F)COC4)cc3)n2)ccc1F` [Example 270, N-[1-(3-Cyano-4-fluoro-benzyl)-1H-pyrazol-3-yl]-2-[4-(3-fluoro-oxetan-3-yl)-phenyl]-acetamide], the concentration for half-maximal inhibition (IC50) turned out to be 51 nM.

`CC(C)(C)c1ccc(CC(=O)Nc2ccn(Cc3ccc(C#N)cc3)n2)cc1` [Example 271, 2-(4-tert-Butyl-phenyl)-N-[1-(4-cyano-benzyl)-1H-pyrazol-3-yl]-acetamide]: the IC50 is 3.4 nM.

As to `N#Cc1ccc(Cn2ccc(NC(=O)Cc3ccc(OC4CC(F)(F)C4)cc3)n2)cc1` [Example 273, N-[1-(4-Cyano-benzyl)-1H-pyrazol-3-yl]-2-[4-(3,3-difluoro-cyclobutoxy)-phenyl]-acetamide], the 50% inhibitory concentration (IC50) was 35 nM.

Consider `N#Cc1ccc(Cn2ccc(NC(=O)Cc3ccc(OC4CC(F)(F)C4)cc3)n2)nc1` [Example 274, N-[1-(5-Cyano-pyridin-2-ylmethyl)-1H-pyrazol-3-yl]-2-[4-(3,3-difluoro-cyclobutoxy)-phenyl]-acetamide], for which the IC50 stood at 133 nM.

Consider `N#Cc1ccc(Cn2ccc(NC(=O)Cc3ccc(N4CCCC4)nc3)n2)cc1F` [Example 275, N-[1-(4-Cyano-3-fluoro-benzyl)-1H-pyrazol-3-yl]-2-(6-pyrrolidin-1-yl-pyridin-3-yl)-acetamide], for which the IC50 is 14 nM.

For the compound `N#Cc1ccc(Cn2ccc(NC(=O)Cc3ccc(N4CCCC4)nc3)n2)nc1` [Example 276, N-[1-(5-Cyano-pyridin-2-ylmethyl)-1H-pyrazol-3-yl]-2-(6-pyrrolidin-1-yl-pyridin-3-yl)-acetamide], the IC50 stood at 188 nM.

With `N#Cc1ccc(Cn2ccc(NC(=O)Cc3ccc(C4(C(F)(F)F)CC4)cc3)n2)cc1` [Example 277, N-[1-(4-Cyano-benzyl)-1H-pyrazol-3-yl]-2-[4-(1-trifluoromethyl-cyclopropyl)-phenyl]-acetamide], the IC50 was 15 nM.

For `N#Cc1cc(Cn2ccc(NC(=O)Cc3ccc(OCC4COC4)cc3)n2)ccc1F` [Example 279, N-[1-(3-Cyano-4-fluoro-benzyl)-1H-pyrazol-3-yl]-2-[4-(oxetan-3-ylmethoxy)-phenyl]-acetamide], the IC50 amounted to 275 nM.

Consider `CC1(COc2ccc(CC(=O)Nc3ccn(Cc4ccc(F)c(C#N)c4)n3)cc2)COC1` [Example 280, N-[1-(3-Cyano-4-fluoro-benzyl)-1H-pyrazol-3-yl]-2-[4-(3-methyl-oxetan-3-ylmethoxy)-phenyl]-acetamide], for which the IC50 amounted to 138 nM.

`N#Cc1cc(Cn2ccc(NC(=O)Cc3ccc(OC4CC(F)(F)C4)cc3)n2)ccc1F` [Example 281, N-[1-(3-Cyano-4-fluoro-benzyl)-1H-pyrazol-3-yl]-2-[4-(3,3-difluoro-cyclobutoxy)-phenyl]-acetamide]: the IC50 was 21 nM.

As to `CC(C)c1ccc(CC(=O)Nc2ccn(Cc3ccc(F)c(C#N)c3)n2)cc1` [Example 282, N-[1-(3-Cyano-4-fluoro-benzyl)-1H-pyrazol-3-yl]-2-(4-isopropyl-phenyl)-acetamide], the IC50 is 12 nM.

`CC(C)(C)c1ccc(CC(=O)Nc2ccn(Cc3ccc(F)c(C#N)c3)n2)cc1` [Example 283, 2-(4-tert-Butyl-phenyl)-N-[1-(3-cyano-4-fluoro-benzyl)-1H-pyrazol-3-yl]-acetamide]: the half-maximal inhibitory concentration (IC50) turned out to be 9.5 nM.

Take `CC1(COc2ccc(CC(=O)Nc3ccn(Cc4ccc(C#N)cn4)n3)cc2)COC1` [Example 284, N-[1-(5-Cyano-pyridin-2-ylmethyl)-1H-pyrazol-3-yl]-2-[4-(3-methyl-oxetan-3-ylmethoxy)-phenyl]-acetamide]: the IC50 came to 3070 nM.

For the compound `CC1(COc2ccc(CC(=O)Nc3ccn(Cc4ccc(C#N)cc4)n3)cc2)COC1` [Example 285, N-[1-(4-Cyano-benzyl)-1H-pyrazol-3-yl]-2-[4-(3-methyl-oxetan-3-ylmethoxy)-phenyl]-acetamide], the IC50 was found to be 208 nM.

Regarding `N#Cc1ccc(Cn2ccc(NC(=O)Cc3ccc(OCC4COC4)cc3)n2)cc1` [Example 286, N-[1-(4-Cyano-benzyl)-1H-pyrazol-3-yl]-2-[4-(oxetan-3-ylmethoxy)-phenyl]-acetamide], the IC50 stood at 393 nM.

Take `N#Cc1ccc(Cn2ccc(NC(=O)Cc3ccc(OCC4COC4)cc3)n2)nc1` [Example 287, N-[1-(5-Cyano-pyridin-2-ylmethyl)-1H-pyrazol-3-yl]-2-[4-(oxetan-3-ylmethoxy)-phenyl]-acetamide]: the IC50 was 9480 nM.

For `N#Cc1ccc(Cn2ccc(NC(=O)Cc3ccc(C4CC(F)(F)C4)cc3)n2)cc1F` [Example 288, N-[1-(4-Cyano-3-fluoro-benzyl)-1H-pyrazol-3-yl]-2-[4-(3,3-difluoro-cyclobutyl)-phenyl]-acetamide], the IC50 was determined as 4.7 nM.

Turning to `N#Cc1ccc(Cn2ccc(NC(=O)Cc3ccc(OCC4CC(F)(F)C4)cc3)n2)cc1F` [Example 289, N-[1-(4-Cyano-3-fluoro-benzyl)-1H-pyrazol-3-yl]-2-[4-(3,3-difluoro-cyclobutylmethoxy)-phenyl]-acetamide], the IC50 worked out at 23 nM.

On to `CC1(COc2ccc(CC(=O)Nc3ccn(Cc4ccc(C#N)c(F)c4)n3)cc2)CC(F)(F)C1` [Example 290, N-[1-(4-Cyano-3-fluoro-benzyl)-1H-pyrazol-3-yl]-2-[4-(3,3-difluoro-1-methyl-cyclobutylmethoxy)-phenyl]-acetamide], for which the IC50 was 39 nM.

Consider `Cn1ncc2ccc(CC(=O)Nc3ccn(Cc4ccc(C#N)c(F)c4)n3)cc21` [Example 291, N-[1-(4-Cyano-3-fluoro-benzyl)-1H-pyrazol-3-yl]-2-(1-methyl-1H-indazol-6-yl)-acetamide], for which the IC50 was determined as 80 nM.

`Cn1ccc2cc(CC(=O)Nc3ccn(Cc4ccc(C#N)c(F)c4)n3)ccc21` [Example 292, N-[1-(4-Cyano-3-fluoro-benzyl)-1H-pyrazol-3-yl]-2-(1-methyl-1H-indol-5-yl)-acetamide]: the IC50 worked out at 6.5 nM.

As for `Cn1ccc2ccc(CC(=O)Nc3ccn(Cc4ccc(C#N)c(F)c4)n3)cc21` [Example 293, N-[1-(4-Cyano-3-fluoro-benzyl)-1H-pyrazol-3-yl]-2-(1-methyl-1H-indol-6-yl)-acetamide], the IC50 came out at 6.6 nM.

Consider `N#Cc1ccc(Cn2ccc(NC(=O)Cc3ccc(N4CCC(F)(F)C4)nc3)n2)cc1F` [Example 294, N-[1-(4-Cyano-3-fluoro-benzyl)-1H-pyrazol-3-yl]-2-[6-(3,3-difluoro-pyrrolidin-1-yl)-pyridin-3-yl]-acetamide], for which the IC50 was 22 nM.

In the case of `Cn1ncc2ccc(CC(=O)Nc3ccn(Cc4ccc(C#N)cc4)n3)cc21` [Example 295, N-[1-(4-Cyano-benzyl)-1H-pyrazol-3-yl]-2-(1-methyl-1H-indazol-6-yl)-acetamide], the IC50 is 308 nM.

For the compound `Cn1ccc2cc(CC(=O)Nc3ccn(Cc4ccc(C#N)cc4)n3)ccc21` [Example 296, N-[1-(4-Cyano-benzyl)-1H-pyrazol-3-yl]-2-(1-methyl-1H-indol-5-yl)-acetamide], the IC50 amounted to 17 nM.

Turning to `Cn1ccc2ccc(CC(=O)Nc3ccn(Cc4ccc(C#N)cc4)n3)cc21` [Example 297, N-[1-(4-Cyano-benzyl)-1H-pyrazol-3-yl]-2-(1-methyl-1H-indol-6-yl)-acetamide], the IC50 worked out at 20 nM.

`CC1(COc2ccc(CC(=O)Nc3ccn(Cc4ccc(C#N)cc4)n3)cc2)CC(F)(F)C1` [Example 298, N-[1-(4-Cyano-benzyl)-1H-pyrazol-3-yl]-2-[4-(3,3-difluoro-1-methyl-cyclobutylmethoxy)-phenyl]-acetamide]: the IC50 worked out at 43 nM.

For `N#Cc1ccc(Cn2ccc(NC(=O)Cc3ccc(OCC4CC(F)(F)C4)cc3)n2)cc1` [Example 299, N-[1-(4-Cyano-benzyl)-1H-pyrazol-3-yl]-2-[4-(3,3-difluoro-cyclobutylmethoxy)-phenyl]-acetamide], the IC50 was 37 nM.

Regarding `N#Cc1ccc(Cn2ccc(NC(=O)Cc3ccc(C4CC(F)(F)C4)cc3)n2)cc1` [Example 300, N-[1-(4-Cyano-benzyl)-1H-pyrazol-3-yl]-2-[4-(3,3-difluoro-cyclobutyl)-phenyl]-acetamide], the 50% inhibitory concentration (IC50) was determined as 7.5 nM.

`Cn1ccc2cc(CC(=O)Nc3ccn(Cc4ccc(C#N)cn4)n3)ccc21` [Example 301, N-[1-(5-Cyano-pyridin-2-ylmethyl)-1H-pyrazol-3-yl]-2-(1-methyl-1H-indol-5-yl)-acetamide]: the IC50 is 71 nM.

Turning to `Cn1ccc2ccc(CC(=O)Nc3ccn(Cc4ccc(C#N)cn4)n3)cc21` [Example 302, N-[1-(5-Cyano-pyridin-2-ylmethyl)-1H-pyrazol-3-yl]-2-(1-methyl-1H-indol-6-yl)-acetamide], the IC50 stood at 39 nM.

Take `CC1(COc2ccc(CC(=O)Nc3ccn(Cc4ccc(C#N)cn4)n3)cc2)CC(F)(F)C1` [Example 303, N-[1-(5-Cyano-pyridin-2-ylmethyl)-1H-pyrazol-3-yl]-2-[4-(3,3-difluoro-1-methyl-cyclobutylmethoxy)-phenyl]-acetamide]: the IC50 came out at 51 nM.

Consider `N#Cc1ccc(Cn2ccc(NC(=O)Cc3ccc(OCC4CC(F)(F)C4)cc3)n2)nc1` [Example 304, N-[1-(5-Cyano-pyridin-2-ylmethyl)-1H-pyrazol-3yl]-2-[4-(3,3-difluoro-cyclobutylmethoxy)-phenyl]-acetamide], for which the IC50 was 118 nM.

With `N#Cc1ccc(Cn2ccc(NC(=O)Cc3ccc(C4CC(F)(F)C4)cc3)n2)nc1` [Example 305, N-[1-(5-Cyano-pyridin-2-ylmethyl)-1H-pyrazol-3-yl]-2-[4-(3,3-difluoro-cyclobutyl)-phenyl]-acetamide], the IC50 stood at 29 nM.

Turning to `N#Cc1cc(Cn2ccc(NC(=O)Cc3ccc(N4CCC(F)(F)C4)nc3)n2)ccc1F` [Example 306, N-[1-(3-Cyano-4-fluoro-benzyl)-1H-pyrazol-3-yl]-2-[6-(3,3-difluoro-pyrrolidin-1-yl)-pyridin-3-yl]-acetamide], the IC50 worked out at 17 nM.

Take `N#Cc1cc(Cn2ccc(NC(=O)Cc3ccc(N4CCCC4)nc3)n2)ccc1F` [Example 307, N-[1-(3-Cyano-4-fluoro-benzyl)-1H-pyrazol-3-yl]-2-(6-pyrrolidin-1-yl-pyridin-3-yl)-acetamide]: the 50% inhibitory concentration (IC50) turned out to be 42 nM.

Usually IC50 stands for the concentration needed to halve the response being measured.

The values above are taken from patent US9932314B2, “Pyrazole compounds and their use as T-type calcium channel blockers” (IDORSIA PHARMACEUTICALS LTD, priority 2015, dated 2018).
